Experimental data reported in patent EP0573883A1, “Utilization of 3 substituted aryl-5-alkyl-isoxazole-4-carboxylic acid derivatives against endoparasites new 3-substituted aryl-5-alkyl-isoxazole-4-carboxylic acid derivatives and process for their preparation” (BAYER AG, priority 1992, dated 1993).

Tests used:
[1] = system: Haemonchus contortus; experiment: In vivo nematode test, Haemonchus contortus / sheep (faecal egg count before and after treatment); settings: experimentally infected sheep (Schaf), treated after the prepatent period, pure active substance in gelatin capsules, oral, dose giving complete cessation of egg excretion, read-out: Dosis effectiva
Text: Haemonchus contortus / Schaf
Experimentell mit Haemonchus contortus infizierte Schafe wurden nach Ablauf der Präpatenzzeit des Parasiten behandelt. Die Wirkstoffe wurden als reiner Wirkstoff in Gelatinekapseln oral appliziert.
(§1) Der Wirkungsgrad wird dadurch bestimmt, daß man die mit dem Kot ausgeschiedenen Wurmeier vor und nach der Behandlung quantitativ auszählt.
(§2) Ein völliges Sistieren der Eiausscheidung nach der Behandlung bedeutet, daß die Würmer abgetrieben wurden oder so geschädigt sind, daß sie keine Eier mehr produzieren (Dosis effectiva).
(§3) Geprüfte Wirkstoffe und wirksame Dosierungen (Dosis effectiva) sind aus der nachfolgenden Tabelle ersichtlich.

[2] = system: Trichostrongylus colubriformis; experiment: In vivo nematode test, Trichostrongylus colubriformis / sheep (faecal egg count before and after treatment); settings: experimentally infected sheep (Schaf), treated after the prepatent period, pure active substance in gelatin capsules, oral, dose giving complete cessation of egg excretion, read-out: Dosis effectiva
Text: Trichostrongylus colubriformis / Schaf
Experimentell mit Trichostrongylus colubriformis infizierte Schafe wurden nach Ablauf der Präpatenzzeit des Parasiten behandelt. Die Wirkstoffe wurden als reiner Wirkstoff in Gelatinekapseln oral appliziert.
as §1, §2, §3

SMILES	minimal effective dose [1] [mg/kg]	minimal effective dose [2] [mg/kg]
Cc1onc(-c2c(Cl)cccc2Cl)c1C(=O)Nc1cc(F)cc(F)c1 [Beispiel 103]	10	–
CCCCCCCCCCCCCCCCCCNC(=O)c1c(-c2c(Cl)cccc2Cl)noc1C [Beispiel 83]	10	10
Cc1onc(-c2c(Cl)cccc2Cl)c1C(=O)Oc1ccc(Cl)cc1 [Beispiel 62]	10	10
Cc1ccc(OC(=O)c2c(-c3c(Cl)cccc3Cl)noc2C)cc1 [Beispiel 59]	10	5
CCc1onc(-c2c(Cl)cccc2Cl)c1C(=O)Nc1ccc(SC(F)(F)F)cc1 [Beispiel 127]	10	5
Cc1ccc(NC(=O)c2c(-c3c(Cl)cccc3Cl)noc2C)cc1 [Beispiel 119]	5	10
Cc1ccccc1NC(=O)c1c(-c2c(Cl)cccc2Cl)noc1C [Beispiel 116]	10	5
CCCCCCCCCCCCCCCCCCNC(=O)c1c(-c2c(Cl)cccc2Cl)noc1CC [Beispiel 1, N-Oktadecyl-3-(2,6-dichlor-phenyl)-5-ethyl-isoxazol-4-carbonsäureamid]	5	10
Cc1ccccc1NC(=O)c1c(-c2c(F)cccc2Cl)noc1C [Beispiel 221]	5	–
Cc1onc(-c2c(F)cccc2Cl)c1C(=O)Nc1ccc(Cl)cc1F [Beispiel 230]	10	5
